From publication PMC2824700, “Genetic analysis of the Staphylococcus epidermidis Macromolecular Synthesis Operon: Serp1129 is an ATP binding protein and sigA transcription is regulated by both σ^A- and σ^B-dependent promoters” (BMC Microbiology, 2010)

Target: T1, Serp1129 (Staphylococcus epidermidis, UniProt Q5HNY5)
T1 construct: full ORF in pET30a+ (NcoI/BamHI), His-tagged, E. coli BL21(DE3), HisTrap purified
T1 sequence (Q5HNY5 1-272): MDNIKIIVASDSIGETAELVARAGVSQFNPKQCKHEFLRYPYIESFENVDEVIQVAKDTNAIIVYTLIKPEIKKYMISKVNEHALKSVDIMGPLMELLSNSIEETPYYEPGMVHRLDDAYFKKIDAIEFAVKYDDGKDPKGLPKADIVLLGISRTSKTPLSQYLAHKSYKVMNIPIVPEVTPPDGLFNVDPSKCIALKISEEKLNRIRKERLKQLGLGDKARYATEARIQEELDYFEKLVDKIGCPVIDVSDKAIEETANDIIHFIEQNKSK
Experiment: competition against biotinylated azidoanilide GTP photoaffinity label, streptavidin blot
Format: binding
Details: 5-30 uM unlabeled GTP versus 1 uM labelled analogue; 25 °C, 30 s, then UV 254 nm

## Nc1nc2c(ncn2[C@@H]2O[C@H](COP(=O)(O)OP(=O)(O)OP(=O)(O)O)[C@@H](O)[C@H]2O)c(=O)[nH]1 [GTP]
  competition against biotinylated azidoanilide GTP photoaffinity label, streptavi: A similar pattern was observed when GTP binding reactions were performed
